Values of other authors in patent US10792481B2, “Implantable drug delivery device” (Nano Precision Medical, Inc., priority 2014, dated 2020).

Conditions: 37° C., 0.2 atmosphere partial pressure

For O=O [oxygen], the “solubility of oxygen in water” value is given as “about 7 mg/liter”.
